Data: patent US7279332B2, “Method of isolating ependymal neural stem cells” (NeuroNova AB, priority 1998, dated 2007)

Test system: nigral dopamine neurons (substantia nigra pars compact)
Assay: Quantitative in vivo neurogenesis in substantia nigra pars compact after DiI labeling of ependymal cells
Conditions: mice
Protocol: Adult rats and mice were given DiI through intraventricular injections as described in the example above. At various time intervals after the injection (hours-months), the animals were transcardially perfused with 15 ml 0.9% saline, followed by 50 ml of +4° C. 4% (w/v) paraformaldehyde and 0.4% (v/v) picric acid in 0.1 M phosphate buffered saline, pH 6.9, during 5 min. After brain removal, the tissue was fixed for an additional 90 minutes in the same fixative and cryoprotected in buffered sucrose (10% for 24 h, 30% for 2 days) at +4° C. The entire midbrain was cut with a cryostat using a systematic, uniform random sampling design, where 40 μm thick frontal sections were taken to six parallel rostrocaudal series. One series of sections was kept in 0.1 M PBS and the fluorescent signal was immediately converted to a permanent diaminobenzidine (DAB) signal using a modified previously described protocol (Singleton et al., J. Neurosci. Meth. 64:47). […] The photoconversion process was carefully evaluated and when all the fluorescent signal in substantia nigra was visualized with the brown DAB product, the sections were immunohistochemically labeled with a marker (Vector SG, Vector) for dopamine neurons (tyrosine hydroxylase) utilizing the avidin-biotin-immunoperoxidase system (Vector) (Janson et al., Neuroscience 57:931). The five parallel series of sections were instead stored in 30% sucrose in 0.1 M PBS at −20° C. until they were processed for immunohistochemistry and analyzed in a confocal laser scanning microscope utilizing several markers for glia and neurons (with appropriate controls) to determine the neuronal phenotype of the DiI labeled cells in substantia nigra pars compact (FIG. 8).
Quantitative estimates of the total number of TH immunoreactive cell bodies counterstained with cresyl violet (TH/CV+ neurons) as well as TH immunoreactive cell bodies also containing DiI label were made in the bilateral SNc. Neuronal counts were determined using coded sections and a stereological technique, the optical fractionator (Janson et al., Neuroscience 57:931). […]

CN1CC=C(c2ccccc2)CC1 [MPTP, 1-methyl-4-phenyl-1,2,3,6-tetrahydropyridine]
number of TH+/DiI+ nigral neurons (MPTP 40 mg/kg sc. vs vehicle): higher numbers of TH+/DiI+ nigral neurons
migratory streams of DiI+ cells in the midbrain (MPTP 40 mg/kg sc. vs vehicle, qualitative appearance): appeared more pronounced
increase in number of new neurons generated each week in substantia nigra, compared to animals treated with vehicle alone (MPTP 40 mg/kg sc., regression curve (r^2=0.744) of counts at a few hours to 2 months): 24%
